In ChEMBL document CHEMBL3727343, “Agent for inhibiting odor of pyrazine derivatives” (2013):
Active and inactive are the calls of the source. The calls are words filed in the database; no cut-off is given here.

Legend:
[1] = target: T1, Olfactory receptor 5K1 (Homo sapiens) (UniProt Q8NHB7); test: Antagonist activity at human OR5K1 expressed in HEK293 cells assessed as inhibition of 2,6-dimethylpyrazine-induced response at 100 uM by luciferase reporter gene assay; assay type: functional, cell-based
T1 sequence (whole entry): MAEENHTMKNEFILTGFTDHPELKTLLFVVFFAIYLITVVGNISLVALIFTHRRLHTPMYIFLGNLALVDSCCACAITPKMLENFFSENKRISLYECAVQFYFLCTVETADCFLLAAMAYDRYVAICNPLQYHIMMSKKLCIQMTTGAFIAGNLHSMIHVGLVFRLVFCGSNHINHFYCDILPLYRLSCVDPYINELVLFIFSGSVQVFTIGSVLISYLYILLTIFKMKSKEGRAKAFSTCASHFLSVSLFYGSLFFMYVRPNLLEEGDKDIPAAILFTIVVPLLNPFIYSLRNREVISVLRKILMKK

Homo sapiens = species on record: Homo sapiens; test: Inhibition of 2,6-dimethylpyrazine-induced odor assessed as strength of odor on cloth smelled by subjects; assay type: functional, organism-based

| SMILES | inhibition [1] | inhibition (Homo sapiens) |
| --- | --- | --- |
| CC(C=O)Cc1ccc(C(C)C)cc1 (configuration not stated) | > 75% | – |
| O=C1CCCCCCCCCCCC(=O)OCCO1 | > 40% | – |
| CC(=O)/C=C/C1=C(C)CCCC1(C)C | > 75% | Active |
| CCCCCCOC(=O)c1ccccc1O | > 40% | – |
| C[C@@H]1CCCCCCCCCCCCC(=O)C1 | > 50% | – |
| CC/C=C(\C)C(O)CCCCC (configuration not stated) | > 75% | Active |
| CC(C)=CCC/C(C)=C/C=O | > 75% | – |
| CC(C=O)C1CCCCC1 (configuration not stated) | > 50% | – |
| C[C@@H]1[C@@H]2C(=O)C[C@H]3[C@@H]2C(C)(C)CCC[C@]13C | > 75% | – |
| C/C=C/C(=O)C1=C(C)C=CCC1(C)C | > 40% | Active |
| OCCCCCCc1ccccc1 | > 40% | – |
| CC1=CC(C)C(C=O)CC1 (configuration not stated) | > 40% | Active |
| C=C(OCC)C1C(C)(C)CC(=O)CC1(C)C | > 50% | – |
| CC(=O)c1c(C)c([N+](=O)[O-])c(C(C)(C)C)c([N+](=O)[O-])c1C | > 40% | – |
| CC12CCC(C3(CCCC3)C1=O)C2(C)C (configuration not stated) | > 50% | – |
| CC(C)=CCCC(C)CCOCC=O (configuration not stated) | > 40% | – |
| CC(C=O)Cc1ccc2c(c1)OCO2 (configuration not stated) | > 40% | Active |
| CO[C@]1(C)CC[C@H]2C(C)(C)[C@@H]3C[C@@]21CC[C@H]3C | > 50% | – |
| C=CCc1ccc(O)c(OC)c1 | > 40% | – |
| CC(C)[C@H]1CC[C@@H](CO)CC1 | > 40% | – |
| CC(=O)O[C@]1(C)CC[C@H]2C(C)(C)[C@@H]3C[C@@]21CC[C@H]3C | > 50% | – |
| CC(=O)c1ccc2ccccc2c1 | > 50% | Active |
| CC(C)[C@@H]1CC[C@@H](C)C[C@H]1O | > 50% | – |
| CC(=O)c1cc2c(cc1C)C(C)(C)C(C)CC2(C)C (configuration not stated) | > 75% | – |
| CC(C=O)Cc1ccc(C(C)(C)C)cc1 (configuration not stated) | > 50% | Active |
| CC(=O)C1(C)CC2=C(CCCC2(C)C)CC1C (configuration not stated) | > 75% | – |
| CC(C)CCCC(C)CCO (configuration not stated) | > 50% | – |

| SMILES | inhibition [1] | inhibition (Homo sapiens) |
| --- | --- | --- |
| CCOCOC1CCCCCCCCCCC1 | > 50% | – |
| C/C=C/c1ccc(OCc2ccccc2)c(OC)c1 | > 50% | – |
| O=C/C=C/c1ccccc1 | > 50% | – |
| CC1C/C=C/CCCCCCCCCC(=O)C1 (configuration not stated) | > 50% | Active |
| CCCCCC/C(C=O)=C\c1ccccc1 | > 50% | – |
| O=C1CCCCC/C=C\CCCCCCCCO1 | > 50% | – |
| CC(=O)c1cc(C(C)(C)C)cc2c1CCC2(C)C | > 40% | – |
| O=C(OCCc1ccccc1)c1ccccc1O | > 75% | – |
| CC(=O)/C(C)=C/C1C(C)=CCCC1(C)C (configuration not stated) | > 50% | Active |
| CC(C)=CCC/C(C)=C/CO | > 40% | Active |
| CC/C(=C\CC1CC=C(C)C1(C)C)CO (configuration not stated) | > 75% | – |
| CCC(O)COC1CCCCC1C(C)(C)C (configuration not stated) | > 75% | Active |
| CC(C)=CCCC(C)CC=O (configuration not stated) | > 50% | – |
| CC(=O)C1=C(C)[C@@H]2C[C@@]3(C1)[C@H](C)CC[C@H]3C2(C)C | > 50% | – |
| CC1=CC(O)CC(C)C2CC(=C(C)C)CC12 (configuration not stated) | > 75% | – |
| CCCCCC1=C(C)CCC1=O | > 40% | – |
| CC1=CCC(C(C)CC2CCCC2=O)CC1 (configuration not stated) | > 50% | – |
| CCCCCCCC1CCC(=O)O1 (configuration not stated) | > 50% | Active |
| Cc1ccc(C(C)C)c(O)c1 | > 75% | – |
| CCCCC/C(C=O)=C\c1ccccc1 | > 75% | – |
| CC1=CC(C)C(C)C(C=O)C1 (configuration not stated) | > 40% | – |
| O=C1CCCCCCCCCCCCCCO1 | > 40% | – |
| CC1(C)CCCC2(C)C1CCC1(C)OCCC12 (configuration not stated) | > 50% | – |
| CC(C=O)c1ccccc1 (configuration not stated) | > 50% | – |
| C=CCCC(=O)C1=CCCC(C)(C)C1 | > 40% | Active |
| CC1=CCC(C/C=C(\C)CO)C1(C)C (configuration not stated) | > 50% | Active |
